For 15 compounds, IC50 results are on record in patent US20230167114A1, “MACROCYCLIC JAK INHIBITOR AND USE THEREOF” (Biopolar Hongye (Guangdong) Pharmaceutical Co., Ltd., priority 2020, published 2023).

pIC50: −log10 of the molar value.

Common to all, as to type: biochemical
The target in assay [1] is JAK1 (Homo sapiens, UniProt P23458). The assay can be described thus: JAK kinase activity, homogeneous time-resolved fluorescence (JAK1 reaction system). The conditions noted are these: ATP 2 μM, JAK1 protein 0.2 ng/μL; read-out: JAK 1 activity. The method, then:
(§1) The activity measurement method of JAK kinase was to use homogeneous time-resolved fluorescence technique. The reaction was performed in 384 shallow well plates with a total reaction volume of 10 μL. The mixture of kinase protein, compound, ATP and substrate was carried out in a reaction buffer of 50 mM Hepes (pH7.0), NaN3 0.02%, BSA 0.01%, 0.1 mM orthocanadate, 5 mM MgCl2, and 1 mM DTT. After reacting for 1 hour, antibody capable of recognizing substrate phosphorylation and dye XL-615 and detection buffer (Cisbio) containing EDTA were added to the system. The reaction signal of kinase was detected by PE company's porous plate detector. The parameter settings were excitation light at 320 nm, emission light at 615 nm and 665 nm. The activity of JAK is indirectly reflected by the signal ratio of 665 nm and 615 nm. In the reaction, the background well without enzyme and the total enzyme activity well without compound were set.
(§2) The IC50 value of the compound inhibiting protein was obtained by the formula: Y=100/(1+10^((Log IC50−X)*HillSlope)).
In JAK1 reaction system, the concentration of ATP was 2 μM, and the concentration of JAK1 protein was 0.2 ng/μL.

In assay [2] the target is JAK2 (Homo sapiens, UniProt O60674). The assay can be described thus: JAK kinase activity, homogeneous time-resolved fluorescence (JAK2 reaction system). The following applies: ATP 2 μM, JAK2 protein 0.01 ng/μL. The procedure: as §1, §2
In JAK2 reaction system, the concentration of ATP was 2 μM, and the concentration of JAK2 protein was 0.01 ng/μL.

For assay [3], the target named is T1, JAK3 (Homo sapiens, UniProt P52333).
T1 sequence (P52333 1-1124): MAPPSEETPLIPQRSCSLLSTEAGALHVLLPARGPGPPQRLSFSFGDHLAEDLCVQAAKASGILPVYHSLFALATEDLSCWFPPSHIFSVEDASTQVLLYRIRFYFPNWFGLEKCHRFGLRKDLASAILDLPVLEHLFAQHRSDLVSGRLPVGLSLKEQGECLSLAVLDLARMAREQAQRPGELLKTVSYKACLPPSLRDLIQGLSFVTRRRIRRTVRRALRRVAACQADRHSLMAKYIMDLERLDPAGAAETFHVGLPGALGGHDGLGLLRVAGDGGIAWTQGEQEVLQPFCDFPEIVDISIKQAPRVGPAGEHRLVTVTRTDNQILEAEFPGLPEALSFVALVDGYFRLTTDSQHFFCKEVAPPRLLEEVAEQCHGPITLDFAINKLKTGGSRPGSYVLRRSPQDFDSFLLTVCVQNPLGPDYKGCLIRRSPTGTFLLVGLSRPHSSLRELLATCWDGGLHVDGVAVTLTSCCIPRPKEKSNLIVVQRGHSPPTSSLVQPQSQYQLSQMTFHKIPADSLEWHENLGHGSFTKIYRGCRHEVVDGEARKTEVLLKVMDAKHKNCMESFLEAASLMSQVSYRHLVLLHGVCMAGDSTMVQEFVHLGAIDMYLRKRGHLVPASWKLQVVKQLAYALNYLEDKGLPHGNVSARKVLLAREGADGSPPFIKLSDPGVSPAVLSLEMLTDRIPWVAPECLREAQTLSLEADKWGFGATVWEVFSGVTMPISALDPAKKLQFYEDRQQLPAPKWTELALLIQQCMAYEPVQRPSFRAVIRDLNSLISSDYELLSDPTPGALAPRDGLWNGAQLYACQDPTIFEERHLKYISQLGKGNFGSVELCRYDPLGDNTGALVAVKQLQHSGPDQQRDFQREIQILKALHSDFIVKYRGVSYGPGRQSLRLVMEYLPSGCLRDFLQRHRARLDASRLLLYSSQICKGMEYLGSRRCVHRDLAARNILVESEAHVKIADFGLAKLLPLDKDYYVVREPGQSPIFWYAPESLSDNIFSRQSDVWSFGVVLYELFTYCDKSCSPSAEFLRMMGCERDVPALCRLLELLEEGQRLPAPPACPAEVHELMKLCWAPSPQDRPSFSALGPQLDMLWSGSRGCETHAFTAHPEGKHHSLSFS
The assay can be described thus: JAK kinase activity, homogeneous time-resolved fluorescence (JAK3 reaction system). The conditions noted are these: ATP 2 μM, JAK3 protein 0.04 ng/μL; read-out: JAK 3 activity. The procedure:
as §1, §2
In JAK3 reaction system, the concentration of ATP was 2 μM, and the concentration of JAK3 protein was 0.04 ng/μL.

Assay [4] has as its target TYK2 (Homo sapiens, UniProt P29597). The assay can be described thus: JAK kinase activity, homogeneous time-resolved fluorescence (TYK2 reaction system). The conditions noted are these: ATP 2 μM, TYK2 protein 0.2 ng/μL; read-out: TYK 2 activity. The method, then: as §1, §2
In TYK2 reaction system, the concentration of ATP was 2 μM and the concentration of TYK2 protein was 0.2 ng/μL.

Sequence of TYK2 (P29597 whole entry): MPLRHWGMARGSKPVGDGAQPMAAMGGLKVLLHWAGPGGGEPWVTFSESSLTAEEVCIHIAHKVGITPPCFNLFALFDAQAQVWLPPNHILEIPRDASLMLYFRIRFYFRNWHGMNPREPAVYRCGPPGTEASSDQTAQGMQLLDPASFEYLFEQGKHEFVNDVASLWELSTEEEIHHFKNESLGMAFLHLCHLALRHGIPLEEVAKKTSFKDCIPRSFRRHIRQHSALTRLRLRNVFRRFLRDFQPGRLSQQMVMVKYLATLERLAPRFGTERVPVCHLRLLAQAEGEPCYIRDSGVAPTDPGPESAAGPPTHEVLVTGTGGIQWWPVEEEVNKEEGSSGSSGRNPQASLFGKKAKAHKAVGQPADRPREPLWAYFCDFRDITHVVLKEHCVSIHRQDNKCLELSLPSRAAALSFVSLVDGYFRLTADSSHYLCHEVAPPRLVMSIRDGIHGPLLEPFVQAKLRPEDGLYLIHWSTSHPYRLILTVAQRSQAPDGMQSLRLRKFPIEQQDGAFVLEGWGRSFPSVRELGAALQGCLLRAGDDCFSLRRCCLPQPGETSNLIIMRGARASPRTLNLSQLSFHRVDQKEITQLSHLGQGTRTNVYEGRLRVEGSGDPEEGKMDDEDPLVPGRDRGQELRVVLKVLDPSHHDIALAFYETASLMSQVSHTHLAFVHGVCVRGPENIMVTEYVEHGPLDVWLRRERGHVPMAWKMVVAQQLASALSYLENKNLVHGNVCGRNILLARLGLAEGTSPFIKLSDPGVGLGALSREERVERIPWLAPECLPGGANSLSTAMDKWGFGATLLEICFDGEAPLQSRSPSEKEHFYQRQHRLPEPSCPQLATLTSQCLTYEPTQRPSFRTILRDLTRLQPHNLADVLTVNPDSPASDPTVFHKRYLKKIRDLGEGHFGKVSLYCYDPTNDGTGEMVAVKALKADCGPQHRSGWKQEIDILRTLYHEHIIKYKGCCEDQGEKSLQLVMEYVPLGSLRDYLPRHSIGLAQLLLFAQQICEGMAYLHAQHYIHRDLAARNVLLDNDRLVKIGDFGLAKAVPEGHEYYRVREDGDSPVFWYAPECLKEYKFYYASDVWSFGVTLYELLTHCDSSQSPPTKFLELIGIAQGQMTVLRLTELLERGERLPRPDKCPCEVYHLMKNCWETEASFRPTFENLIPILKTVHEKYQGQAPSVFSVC
Sequence of JAK2 (O60674 whole entry): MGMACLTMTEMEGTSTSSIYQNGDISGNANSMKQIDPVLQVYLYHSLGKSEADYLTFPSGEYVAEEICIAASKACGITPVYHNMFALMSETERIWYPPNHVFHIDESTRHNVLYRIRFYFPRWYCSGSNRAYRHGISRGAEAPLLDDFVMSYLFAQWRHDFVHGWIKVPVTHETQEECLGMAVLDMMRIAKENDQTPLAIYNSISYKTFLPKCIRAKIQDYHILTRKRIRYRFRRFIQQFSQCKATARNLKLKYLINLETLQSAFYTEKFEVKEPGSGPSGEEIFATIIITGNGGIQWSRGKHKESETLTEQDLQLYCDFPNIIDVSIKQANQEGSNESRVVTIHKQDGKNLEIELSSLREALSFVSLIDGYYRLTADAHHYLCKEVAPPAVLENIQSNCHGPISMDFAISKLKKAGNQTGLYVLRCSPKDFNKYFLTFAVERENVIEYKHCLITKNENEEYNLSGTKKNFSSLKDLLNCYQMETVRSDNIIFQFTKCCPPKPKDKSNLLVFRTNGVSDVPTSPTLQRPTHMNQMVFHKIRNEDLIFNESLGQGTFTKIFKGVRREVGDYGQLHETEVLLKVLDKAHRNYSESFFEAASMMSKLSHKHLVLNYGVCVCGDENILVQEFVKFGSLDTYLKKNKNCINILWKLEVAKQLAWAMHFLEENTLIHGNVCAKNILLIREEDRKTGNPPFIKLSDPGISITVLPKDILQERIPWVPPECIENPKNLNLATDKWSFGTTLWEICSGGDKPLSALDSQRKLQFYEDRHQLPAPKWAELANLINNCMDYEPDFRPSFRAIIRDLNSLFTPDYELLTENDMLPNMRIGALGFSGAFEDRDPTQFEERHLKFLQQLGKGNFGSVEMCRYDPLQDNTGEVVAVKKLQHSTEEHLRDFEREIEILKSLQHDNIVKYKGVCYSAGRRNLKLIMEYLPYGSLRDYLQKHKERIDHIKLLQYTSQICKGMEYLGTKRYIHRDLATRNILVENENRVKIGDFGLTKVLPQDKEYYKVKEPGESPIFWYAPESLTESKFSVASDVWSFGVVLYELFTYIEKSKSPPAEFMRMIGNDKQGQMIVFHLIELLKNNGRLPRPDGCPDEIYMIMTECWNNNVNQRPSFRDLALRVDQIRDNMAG
Sequence of JAK1 (P23458 whole entry): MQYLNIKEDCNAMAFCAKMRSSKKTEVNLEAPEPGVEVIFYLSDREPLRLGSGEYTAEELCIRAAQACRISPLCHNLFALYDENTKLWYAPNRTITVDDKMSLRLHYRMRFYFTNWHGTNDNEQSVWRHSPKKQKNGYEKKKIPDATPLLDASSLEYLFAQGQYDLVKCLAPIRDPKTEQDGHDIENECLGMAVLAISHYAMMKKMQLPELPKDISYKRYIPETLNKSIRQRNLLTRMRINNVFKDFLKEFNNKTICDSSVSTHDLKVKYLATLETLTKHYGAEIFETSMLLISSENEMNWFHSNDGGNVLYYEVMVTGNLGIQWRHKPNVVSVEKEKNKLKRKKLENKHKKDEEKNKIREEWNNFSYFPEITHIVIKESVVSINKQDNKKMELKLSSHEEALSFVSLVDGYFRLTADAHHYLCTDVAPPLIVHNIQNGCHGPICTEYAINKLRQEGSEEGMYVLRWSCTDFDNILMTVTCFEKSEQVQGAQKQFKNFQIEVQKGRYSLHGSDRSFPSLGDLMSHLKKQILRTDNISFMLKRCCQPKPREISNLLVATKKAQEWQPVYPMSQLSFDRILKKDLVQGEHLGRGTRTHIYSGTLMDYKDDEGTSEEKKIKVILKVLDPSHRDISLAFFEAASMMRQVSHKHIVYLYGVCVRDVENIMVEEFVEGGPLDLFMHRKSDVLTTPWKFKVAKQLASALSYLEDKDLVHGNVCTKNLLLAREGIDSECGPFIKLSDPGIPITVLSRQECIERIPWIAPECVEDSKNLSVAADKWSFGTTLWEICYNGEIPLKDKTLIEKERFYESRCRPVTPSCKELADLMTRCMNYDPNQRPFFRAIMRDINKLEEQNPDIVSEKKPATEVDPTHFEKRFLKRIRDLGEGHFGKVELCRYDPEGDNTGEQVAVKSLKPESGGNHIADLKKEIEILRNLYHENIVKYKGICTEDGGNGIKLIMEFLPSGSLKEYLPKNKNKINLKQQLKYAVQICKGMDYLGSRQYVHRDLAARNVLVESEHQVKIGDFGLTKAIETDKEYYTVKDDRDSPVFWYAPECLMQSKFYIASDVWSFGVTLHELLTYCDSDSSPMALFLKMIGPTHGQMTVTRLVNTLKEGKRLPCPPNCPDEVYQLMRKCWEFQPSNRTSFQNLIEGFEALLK

With `Cc1cnc2nc1Nc1cccc(c1)CCNC(=O)c1c(F)cc(cc1F)-c1cnc(F)c(c1)N2` [Compound 33, 1^3,1^5,2^6-trifluoro-4^5-methyl-3,5,9-triaza-4(2,4)-pyrimidina-2(3,5)-pyridina-1(1,4),6(1,3)-dibenzenacyclodecaphan-10-one], the pIC50 is 6.00 to 7.00 in assay [1], 6.00 to 7.00 in assay [2], 5.00 to 6.00 in assay [3] and less than 5.00 in assay [4].
`Cc1cnc2nc1NCCCCCNC(=O)c1ccc(c(F)c1F)-c1cnc(F)c(c1)N2` [Compound 34, 1^2,l^3,2^6-trifluoro-4^5-methyl-3,5,11-triaza-4(2,4)-pyrimidina-2(3,5)-pyridina-1(1,4)-benzenacydododecaphan-12-one]: the pIC50 in assay [1] is 6.00 to 7.00; in assay [2] it was 6.00 to 7.00; in assay [3] it was 6.00 to 7.00; in assay [4], less than 5.00.
For `Cc1cnc2nc1Nc1cccc(c1)CCCC(=O)N1CCN(CC1)c1cnc(F)c(c1)N2` [Compound 35, 2^6-fluoro-4^5-methyl-3,5-diaza-4(2,4)-pyrimidina-1(1,4)-piperazina-2(3,5)-pyridina-6(1,3)-benzenacyclodecaphan-10-one], the pIC50 in assay [1] is greater than 8.00; in assay [2], 7.00 to 7.96; in assay [3], 6.00 to 7.00; in assay [4] it was 6.00 to 7.00.
On to `COC(=O)c1cc2ccc1C(=O)NCCCc1cccc(c1)Nc1nc(ncc1C)Nc1cc-2cnc1F` [Compound 36, Methyl 2^6-fluoro-4^5-methyl-11-oxo-3,5,10-triaza-4(2,4)-pyrimidina-2(3,5)-pyridina-1(1,4),6(1,3)-dibenzenacycloundecaphan-1^3-carboxylate], for which the pIC50 in assay [1] was greater than 8.00; in assay [2], greater than 8.00; in assay [3], 7.00 to 7.96; in assay [4], 6.00 to 7.00.
As for `Cc1cnc2nc1Nc1cccc(c1)CCCNC(=O)c1ccc(cc1C(=O)O)-c1cnc(F)c(c1)N2` [Compound 37, 2^6-fluoro-4^5-methyl-11-oxo-3,5,10-triaza-4(2,4)-pyrimidina-2(3,5)-pyridina-1(1,4),6(1,3)-dibenzenacycloundecaphan-1^3 - formic acid], the pIC50 in assay [1] is 7.00 to 7.96; in assay [2], 7.00 to 7.96; in assay [3], 6.00 to 7.00; in assay [4], 5.00 to 6.00.
In the case of `Cc1cnc2nc1Nc1cccc(c1)CCCNC(=O)c1ccc(cc1[N+](=O)[O-])-c1cnc(F)c(c1)N2` [Compound 38, 2^6-fluoro-4^5-methyl-1^3-nitro-3,5,10-triaza-4(2,4)-pyrimidina-2(3,5)-pyridina-1(1,4),6(1,3)-dibenzenacycloundecaphan-11-one], the pIC50 in assay [1] is greater than 8.00; in assay [2] it was greater than 8.00; in assay [3] it was 7.00 to 7.96; in assay [4] it was 6.00 to 7.00.
Take `Cc1cnc2nc1NCCCCCNC(=O)c1c(F)cc(cc1F)-c1cnc(F)c(c1)N2` [Compound 39, 1^3,1^5,2^6-trifluoro-4^5-methyl-3,5,11-triaza-4(2,4)-pyrimidina-2(3,5)-pyridina-1(1,4)-benzenacyclododecaphan-12-one]: the pIC50 in assay [1] was 5.00 to 6.00; in assay [2], 6.00 to 7.00; in assay [3] it was 5.00 to 6.00; in assay [4] it was less than 5.00.
Turning to `CNC(=O)c1cc2ccc1C(=O)NCCCCCNc1nc(ncc1C)Nc1cc-2cnc1F` [Compound 40, 2^6-fluoro-N,4^5-dimethyl-12-oxo-3,5,11-triaza-4(2,4)-pyrimidina-2(3,5)-pyridina-1(1,4)-benzenacyclododecaphane-1^3-formamide], the pIC50 in assay [1] is 6.00 to 7.00; in assay [2], 5.00 to 6.00; in assay [3], 5.00 to 6.00; in assay [4], less than 5.00.
For `Cc1cnc2nc1NCCCCCNC(=O)c1ccc(cc1C(=O)NCc1ccccc1)-c1cnc(F)c(c1)N2` [Compound 41, N-benzyl-2^6-fluoro-4^5-methyl-12-oxo-3,5,11-triaza-4(2,4)-pyrimidina-2(3,5)-pyridina-1(1,4)-benzenacyclododecaphane-1^3-formamide], the pIC50 in assay [1] is 5.00 to 6.00; in assay [2], 5.00 to 6.00; in assay [3], 5.00 to 6.00; in assay [4], less than 5.00.
Turning to `Cc1cnc2nc1NCCCCCNC(=O)c1ccc(cc1C(=O)Nc1ccccc1)-c1cnc(F)c(c1)N2` [Compound 42, 2^6-fluoro-4^5-methyl-12-oxo-N-phenyl-3,5,11-triaza-4(2,4)-pyrimidina-2(3,5)-pyridina-1(1,4)-benzenacyclododecaphane-1^3-formamide], the pIC50 in assay [1] was 5.00 to 6.00; in assay [2] it was 5.00 to 6.00; in assay [3], 5.00 to 6.00; in assay [4] it was less than 5.00.
As to `CC(=O)Nc1cc2ccc1C(=O)NCCCCCNc1nc(ncc1C)Nc1cc-2cnc1F` [Compound 43, N-(2^6-fluoro-4^5-methyl-12-oxo-3,5,11-triaza-4(2,4)-pyrimidina-2(3,5)-pyridina-1(l,4)-benzenacyclododecaphane-1^3-yl) acetamide], the pIC50 was 6.00 to 7.00 in assay [1], 6.00 to 7.00 in assay [2], 6.00 to 7.00 in assay [3] and less than 5.00 in assay [4].
In the case of `CCNc1cc2ccc1C(=O)NCCCCCNc1nc(ncc1C)Nc1cc-2cnc1F` [Compound 44, 1^3-(ethylamino)-2^6-difluoro-4^5-methyl-3,5,11-triaza-4(2,4)-pyrimidina-2(3,5)-pyridina-1(1,4)-benzenacyclododecaphan-12-one], the pIC50 in assay [1] is 5.00 to 6.00; in assay [2], 5.00 to 6.00; in assay [3], less than 5.00; in assay [4], less than 5.00.
As to `Cc1cnc2nc1Nc1cc(ccc1F)CCCNC(=O)c1ncc(cc1F)-c1cnc(F)c(c1)N2` [Compound 45, 1^3,2^6,6^6-trifluoro-4^5-methyl-3,5,10-triaza-4(2,4)-pyrimidina-1(5,2),2(3,5)-bipyridina-6(1,3)-benzenacycloundecaphan-11-one], the pIC50 in assay [1] was 7.00 to 7.96; in assay [2], 7.00 to 7.96; in assay [3], 6.00 to 7.00; in assay [4], 5.00 to 6.00.
As for `Cc1cnc2nc1Nc1cc(F)cc(c1)CCNC(=O)c1ccc(cc1S(C)(=O)=O)-c1cnc(F)c(c1)N2` [Compound 46, 2^6,6^5-difluoro-4^5-methyl-1^3(methylsulfonyl)-3,5,9-triaza-4(2,4)-pyrimidina-2(3,5)-pyridina-1(1,4),6(1,3)-dibenzenacyclodecaphan-10-one], the pIC50 in assay [1] is greater than 8.00; in assay [2] it was greater than 8.00; in assay [3], 7.00 to 7.96; in assay [4], 6.00 to 7.00.
`COc1cc2cc(c1)Nc1nc(ncc1C)Nc1cc(cnc1F)-c1ccc(cc1)C(=O)NCC2` [Compound 47, 2^6-fluoro-6^5-methoxy-4^5-methyl-3,5,9-triaza-4(2,4)-pyrimidina-2(3,5)-pyridina-1(1,4),6(1,3)-dibenzenacyclodecaphan-10-one]: the pIC50 in assay [1] is 6.00 to 7.00; in assay [2] it was 6.00 to 7.00; in assay [3], 5.00 to 6.00; in assay [4] it was less than 5.00.
